Test results reported in PubChem BioAssay (NCI).
Where “and” joins values, the source holds several entries; their conditions need not be identical. Equal entries are not always repeated.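 Assay format: 96-well plates, 48-hour exposure. At the GI50, growth is halved. The concentration for full growth arrest is given as TGI.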

How the values were obtained:
Experiment in all cases: NCI anticancer screen, dose series, 48 h
[1] = system: KM12 colon
[2] = system: BT-549 breast
[3] = system: SF-295 CNS
[4] = system: NCI-H23 lung
[5] = system: M14 melanoma
[6] = system: UACC-62 melanoma
[7] = system: A549 NSCLC
[8] = system: MDA-MB-435
[9] = system: UO-31 renal
[10] = system: ACHN renal

## COc1c2ccsc2c(OC)c2ccsc12
[1]
  TGI: > 100 µM
[2]
  TGI: > 100 µM
[3]
  TGI: > 100 µM
[4]
  TGI: > 100 µM
[5]
  TGI: > 100 µM
[6]
  TGI: > 100 µM
[7]
  TGI: > 100 µM
[8]
  TGI: > 100 µM
[9]
  TGI: > 100 µM
[10]
  TGI: > 100 µM

## COCC12CCC(OC)C34C5CC6(O)C(OC)CC(OC(C)=O)(C5C6OC(=O)c5ccccc5)C(C(OC)C13)C4N(C)C2 (stereo not given)
[1]
  TGI: > 100 µM
[2]
  TGI: > 100 µM
[3]
  TGI: > 100 µM
[4]
  TGI: > 100 µM
[5]
  TGI: > 100 µM
[6]
  TGI: > 100 µM
[7]
  TGI: > 100 µM
[8]
  TGI: > 100 µM
[9]
  TGI: > 100 µM
[10]
  TGI: > 100 µM

## COc1ccc(C2SCC(=O)N2NC(=O)C(C)Oc2ccccc2C)cc1 (stereo not given)
[1]
  TGI: > 100 µM
[2]
  TGI: > 100 µM
[3]
  TGI: > 100 µM
[4]
  TGI: > 100 µM
[5]
  TGI: > 100 µM
[6]
  TGI: > 100 µM
[7]
  TGI: > 100 µM
[8]
  TGI: > 100 µM
[9]
  TGI: > 100 µM
[10]
  TGI: > 100 µM

## Cc1c(O)c(OC2OC(CO)C(O)C(O)C2O)cc2c1C=C[C@@H]1[C@@]2(C)C(=O)C[C@]2(C)[C@@H]([C@@](C)(O)C(=O)CCC(C)(C)O)[C@H](O)C[C@@]12C (stereo not given in full)
[1]
  TGI: 66.6 µM
[2]
  TGI: 49.5 µM
[3]
  TGI: 36 µM
[4]
  TGI: 37.9 µM
[5]
  TGI: 68.9 µM
[6]
  TGI: 33.5 µM
[7]
  TGI: 83 µM
[8]
  TGI: 66.5 µM
[9]
  TGI: 44.8 µM
[10]
  TGI: 36.2 µM

## CC12ON(P(=O)(c3ccccc3)c3ccccc3)C(C)(c3ccccc31)c1ccccc12
[1]
  TGI: > 100 µM
[2]
  TGI: > 100 µM
[3]
  TGI: > 100 µM
[4]
  TGI: > 100 µM
[5]
  TGI: > 100 µM
[6]
  TGI: > 100 µM
[7]
  TGI: > 100 µM
[8]
  TGI: > 100 µM
[9]
  TGI: > 100 µM
[10]
  TGI: > 100 µM

## CCOC(=O)C(=O)CC(=O)C1=C(c2ccccc2OC)CC(c2cccs2)=CC1=O
[1]
  TGI: > 100 µM
[2]
  TGI: > 100 µM
[3]
  TGI: > 100 µM
[4]
  TGI: > 100 µM
[5]
  TGI: > 100 µM
[6]
  TGI: > 100 µM
[7]
  TGI: > 100 µM
[8]
  TGI: > 100 µM
[9]
  TGI: > 100 µM
[10]
  TGI: > 100 µM

## CC(C)(C)OC(=O)N1[C@@H]2Cc3ccc(N)cc3[C@@]1(C)c1ccccc12
[1]
  TGI: > 100 µM
[2]
  TGI: 43.4 µM
[3]
  TGI: > 100 µM
[4]
  TGI: 60.4 µM
[5]
  TGI: 51.8 µM
[6]
  TGI: 53.6 µM
[7]
  TGI: > 100 µM
[8]
  TGI: 33.3 µM
[9]
  TGI: > 100 µM
[10]
  TGI: > 100 µM

## CCOC(=O)CCC(NC(=O)Cc1ccc(Oc2nc3ccccc3nc2-c2ccccc2)cc1)C(=O)OCC (stereo not given)
[1]
  TGI: > 100 µM
[2]
  TGI: > 100 µM
[3]
  TGI: > 100 µM
[4]
  TGI: > 100 µM
[5]
  TGI: > 100 µM
[6]
  TGI: > 100 µM
[7]
  TGI: > 100 µM
[8]
  TGI: > 100 µM
[9]
  TGI: > 100 µM
[10]
  TGI: > 100 µM

## CC(=O)N(C(C)=O)n1c(Cc2ccc(C)cc2)nn(C(C)=O)c1=O
[1]
  TGI: > 100 µM
[2]
  TGI: > 100 µM
[3]
  TGI: > 100 µM
[4]
  TGI: > 100 µM
[5]
  TGI: > 100 µM
[6]
  TGI: > 100 µM
[7]
  TGI: > 100 µM
[8]
  TGI: > 100 µM
[9]
  TGI: > 100 µM
[10]
  TGI: > 100 µM

## CCN(CC)CCOC(=O)Cc1cccc2c(=O)cc(-c3ccccc3)oc12
[1]
  GI50: 83.5 µM
  TGI: 62.5 µM and > 165 µM
[2]
  TGI: 61.7 µM
[3]
  GI50: 19.2 µM
  TGI: 62.5 µM and > 141 µM
[4]
  GI50: 58.7 µM
  TGI: 62.5 µM and > 147 µM
[5]
  TGI: 62.5 µM
[6]
  GI50: 39.5 µM
  TGI: 62.5 µM and > 154 µM
[7]
  GI50: 57.4 µM
  TGI: 62.5 µM and > 209 µM
[8]
  TGI: 62.5 µM
[9]
  GI50: 295 µM
[10]
  TGI: 62.5 µM

## COc1ccc2c(c1)CCN1CCCc3ccccc3C21 (stereo not given)
[1]
  TGI: > 100 µM
[2]
  TGI: 86.6 µM
[3]
  TGI: > 100 µM
[4]
  TGI: > 100 µM
[5]
  TGI: 37.9 µM
[6]
  TGI: > 100 µM
[7]
  TGI: > 100 µM
[8]
  TGI: 52.5 µM
[9]
  TGI: > 100 µM
[10]
  TGI: > 100 µM

## NC(=Nc1ccccc1)c1ccccc1N
[1]
  TGI: > 100 µM
[2]
  TGI: > 100 µM
[3]
  TGI: > 100 µM
[4]
  TGI: > 100 µM
[5]
  TGI: > 100 µM
[6]
  TGI: > 100 µM
[7]
  TGI: > 100 µM
[8]
  TGI: > 100 µM
[9]
  TGI: > 100 µM
[10]
  TGI: > 100 µM

## O=C(c1ccc(O)c([N+](=O)[O-])c1)c1ccc(O)c([N+](=O)[O-])c1
[1]
  TGI: > 100 µM
[2]
  TGI: > 100 µM
[3]
  TGI: > 100 µM
[4]
  TGI: > 100 µM
[5]
  TGI: > 100 µM
[6]
  TGI: > 100 µM
[7]
  TGI: > 100 µM
[8]
  TGI: 70.1 µM
[9]
  TGI: > 100 µM
[10]
  TGI: > 100 µM

## CCCCCCCCCCCCCCCCCC(=O)Nc1ccn(C2CCC(COP(=O)(O)O)O2)c(=O)n1 (stereo not given)
[1]
  TGI: > 100 µM
[2]
  TGI: > 100 µM
[3]
  TGI: > 100 µM
[4]
  TGI: > 100 µM
[5]
  TGI: > 100 µM
[6]
  TGI: > 100 µM
[7]
  TGI: > 100 µM
[8]
  TGI: > 100 µM
[9]
  TGI: > 100 µM
[10]
  TGI: > 100 µM

## COc1ccc(CNc2nc3cc(C(F)(F)F)ccc3nc2-c2ccccc2)cc1OC
[1]
  TGI: > 100 µM
[2]
  TGI: > 100 µM
[3]
  TGI: > 100 µM
[4]
  TGI: > 100 µM
[5]
  TGI: > 100 µM
[6]
  TGI: > 100 µM
[7]
  TGI: > 100 µM
[8]
  TGI: > 100 µM
[9]
  TGI: > 100 µM
[10]
  TGI: > 100 µM

## COC1(c2cccs2)c2ccccc2C(OC)(c2cccs2)c2ccccc21 (stereo not given)
[1]
  TGI: > 100 µM
[2]
  TGI: > 100 µM
[3]
  TGI: > 100 µM
[4]
  TGI: > 100 µM
[5]
  TGI: > 100 µM
[6]
  TGI: > 100 µM
[7]
  TGI: > 100 µM
[8]
  TGI: > 100 µM
[9]
  TGI: > 100 µM
[10]
  TGI: > 100 µM

## O=C1CS[C@@](CC(c2ccc(Cl)cc2)c2ccc(Cl)cc2)(c2ccc(Cl)cc2)N1
[1]
  TGI: > 100 µM
[2]
  TGI: > 100 µM
[3]
  TGI: 47.5 µM
[4]
  TGI: > 100 µM
[5]
  TGI: > 100 µM
[6]
  TGI: 63.1 µM
[7]
  TGI: > 100 µM
[8]
  TGI: > 100 µM
[9]
  TGI: > 100 µM
[10]
  TGI: 89.4 µM

## O=C1C2=C(SCCS2)C(=O)c2c(Sc3ccc(Cl)cc3)c(Sc3ccc(Cl)cc3)c(Sc3ccc(Cl)cc3)c(Sc3ccc(Cl)cc3)c21
[1]
  TGI: > 100 µM
[2]
  TGI: > 100 µM
[3]
  TGI: > 100 µM
[4]
  TGI: > 100 µM
[5]
  TGI: > 100 µM
[6]
  TGI: 52.8 µM
[7]
  TGI: > 100 µM
[8]
  TGI: > 100 µM
[9]
  TGI: > 100 µM
[10]
  TGI: > 100 µM

## O=[N+]([O-])c1cccc(Cl)c1Oc1ccc(S(=O)(=O)/N=C(\NO)Nc2ccc(Cl)cc2)cc1
[1]
  TGI: 31.2 µM
[2]
  TGI: 29.9 µM
[3]
  TGI: 34.4 µM
[4]
  TGI: 33.9 µM
[5]
  TGI: 27.4 µM
[6]
  TGI: 25.5 µM
[7]
  TGI: 28.7 µM
[8]
  TGI: 29.2 µM
[9]
  TGI: 23.7 µM
[10]
  TGI: 27.5 µM

## CCCN(CCC)C1CCc2c(ccc3cc[nH]c23)C1 (stereo not given)
[1]
  TGI: > 100 µM
[2]
  TGI: > 100 µM
[3]
  TGI: > 100 µM
[4]
  TGI: > 100 µM
[5]
  TGI: 32.4 µM
[6]
  TGI: > 100 µM
[7]
  TGI: > 100 µM
[8]
  TGI: > 100 µM
[9]
  TGI: > 100 µM
[10]
  TGI: > 100 µM

## COC12C=CC(C=C1C#N)CC2 (stereo not given) (tested in a mixture with another compound)
[1]
  TGI: > 100 µM
[2]
  TGI: > 100 µM
[3]
  TGI: > 100 µM
[4]
  TGI: > 100 µM
[5]
  TGI: > 100 µM
[6]
  TGI: > 100 µM
[7]
  TGI: > 100 µM
[8]
  TGI: > 100 µM
[9]
  TGI: > 100 µM
[10]
  TGI: > 100 µM
